# According to paper PMC8163394 (2020):
# Columns and labels:
# [1] = system: d(GCGCGCGCGC)2 (DNA, duplex) GCGCGCGCGC; assay: TRIR and transient absorption; conditions: 50 mM potassium phosphate; pH 7, D2O
# [2] = system: d(CGCGAATTCGCG)2 (DNA, duplex) CGCGAATTCGCG; assay: emission titration (quenching), TRIR; conditions: 50 mM potassium phosphate; pH 7; [Ru] 10 μM
# [3] = system: poly(dA-dT) (DNA, polymer) AT; assay: emission titration (enhancement), TRIR; conditions: 10 mM sodium phosphate, [Ru] 8 μM
# [4] = system: poly(dG-dC) (DNA, polymer) GC; assay: emission titration, McGhee-von Hippel fit; conditions: 10 mM phosphate buffer (sodium in Fig. 2, potassium in Fig. S1); pH 7, air-saturated; [Ru] 20 μM; per base
# [5] = system: d(CGCAAATTTGCG)2 (DNA, duplex) CGCAAATTTGCG; assay: emission titration (complex, decrease then increase), TRIR; conditions: 50 mM potassium phosphate; pH 7; [Ru] 10 μM
binding [1],binding [2],binding ([3]; reaches saturation),Kb [4],binding [5],binding ([3]; saturation not reached),SMILES
yes,yes,yes,3.6 ± 0.2 × 10^6 M^-1,yes,,[Ru+2].c1ccc2nc3c4cccnc4c4ncccc4c3nc2c1.c1cnc2c(ccc3nccnc32)n1.c1cnc2c(ccc3nccnc32)n1 [Δ-1]
yes,yes,,1.2 ± 0.1 × 10^6 M^-1,yes,yes,[Ru+2].c1ccc2nc3c4cccnc4c4ncccc4c3nc2c1.c1cnc2c(ccc3nccnc32)n1.c1cnc2c(ccc3nccnc32)n1 [Λ-1]
